Laboratory results reported in patent US20110245173A1, “Long-Acting GLP-1 Derivatives, and Methods of Treating Cardiac Dysfunction” (priority 2008, published 2011).

Assays:
[1] = Pharmacokinetics in plasma after single bolus intravenous administration to rats; parameters: species or system Sprague Dawley rats; conditions: rat, in vivo; for AUC(0-inf) / AUC(0-t) / Cmax / clearance / half-life: male, Sprague Dawley
Method: GLP-1 (9-36) analogues containing C-terminal extensions (FIG. 2) were tested in 9 week old male Sprague Dawley rats to evaluate biological half-life as well as other pharmacokinetic properties of the analogues. Rats used in the study were acclimated to laboratory conditions for approximately 1 week prior to testing. Polypeptide analogues were prepared as solutions for intravenous administration (bolus injection in the jugular vein) at concentrations of 0.15 mg/mL and 1.5 mg/mL in appropriate buffers. The compounds were then injected while the animals were still under anesthesia. Blood samples were taken form each animal at no more than 5 occasions. Following dose administration, blood samples (0.3 to 0.4 mL) were obtained by jugular venipuncture (lithium heparin was used as an anticoagulant) at selected time points (0, 2.5, 5, 10 and 15 minutes or 30, 45, 60, 120 and 240 minutes). The samples were analyzed for parent drug by LC-MS/MS. Numerical data was subjected to calculation of group mean values, standard deviations and coefficients of variation (expressed as a percent), where appropriate. The pharmacokinetic analysis (non-compartmental) of plasma concentration was performed using the PhAST software program (Version 2.3-004, Pheonix International Life Sciences Inc.). The highest experimental concentration was considered the peak concentration (Cmax; observed value). Whenever possible, the observed terminal phase rate constant (Kel) was calculated from the terminal 3 or more points (non-zero and non-Cmax points) of the log-linear regression. The number of points included in the regression analysis was such as to optimize r^2 value calculated for the regression. Terminal phase half-life (t1/2) was determined by dividing 0.693 by Kel. The area under the plasma concentration of each compound versus time-curve from time zero to the last quantifiable concentration (AUC0-t) was calculated by the linear trapezoidal method (Bailer, A. J., (1988) J. Pharmacokin. Biopharm., 1, 303-309). AUC0-∞, the area under the plasma concentration versus time curve from time zero to infinity, was calculated as the sum of AUC0-t plus the ratio of the last plasma concentration to Kel. Values below the limit of quantification were assigned a value of zero for pharmacokinetic analysis.

[2] = cited from earlier work

CC[C@H](C)[C@H](NC(=O)[C@H](Cc1ccccc1)NC(=O)[C@H](CCC(=O)O)NC(=O)[C@H](CCCCN)NC(=O)[C@H](C)NC(=O)[C@H](C)NC(=O)[C@H](CCC(N)=O)NC(=O)CNC(=O)[C@H](CCC(=O)O)NC(=O)[C@H](CC(C)C)NC(=O)[C@H](Cc1ccc(O)cc1)NC(=O)[C@H](CO)NC(=O)[C@H](CO)NC(=O)[C@@H](NC(=O)[C@H](CC(=O)O)NC(=O)[C@H](CO)NC(=O)[C@@H](NC(=O)[C@H](Cc1ccccc1)NC(=O)[C@@H](NC(=O)CNC(=O)[C@@H](N)CCC(=O)O)[C@@H](C)O)[C@@H](C)O)C(C)C)C(=O)N[C@@H](C)C(=O)N[C@@H](Cc1c[nH]c2ccccc12)C(=O)N[C@@H](CC(C)C)C(=O)N[C@H](C(=O)N[C@@H](CCCCN)C(=O)NCC(=O)N[C@@H](CCCNC(=N)N)C(N)=O)C(C)C [DGS70]
AUC(0-inf) ([1]; 0.15 mg/kg): 65.1 ng·h/mL
AUC(0-t) ([1]; 0.15 mg/kg): 63.8 ng·h/mL
Cmax ([1]; 0.15 mg/kg): 1060 ng/mL
clearance ([1]; 0.15 mg/kg): 38.4 mL/min/kg
half-life ([1]; 0.15 mg/kg, T1/2: Terminal phase half-life): 1.64 min
AUC(0-inf) ([1]; 1.5 mg/kg): 679 ng·h/mL
AUC(0-t) ([1]; 1.5 mg/kg): 672 ng·h/mL
Cmax ([1]; 1.5 mg/kg): 10600 ng/mL
clearance ([1]; 1.5 mg/kg): 36.8 mL/min/kg
half-life ([1]; 1.5 mg/kg, T1/2: Terminal phase half-life): 2.22 min
half-life ([1]; 1.5 mg/kg, half-life): 1.6 to 2.2 min
Tmax: Time to Cmax ([1]; 0.15 mg/kg): 2.50 min
Tmax: Time to Cmax ([1]; 1.5 mg/kg): 2.50 min
half-life in vivo [2]: 2 to 4 min
